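Each compound was tested at five concentrations against cells in 96-well plates for 48 hours. Abbreviation: GI50, concentration required for 50% inhibition of growth. TGI is the concentration that stops growth completely.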

Holding throughout (assay): growth of human tumour cells (NCI), 48 h
Assay [1] relates to A549 NSCLC.
Assay [2] deals with ACHN renal.
In assay [3] the test system is CAKI-1 renal.
Assay [4] deals with HCC-2998 colon.
For assay [5], the system named is MOLT-4 leukemia.

As to `COC(=O)c1c(C)cccc1C1CN=NC12Cc1cccc(C)c1C2=O` (stereo not given), the TGI in assay [1] was 66.8 µM; in assay [2] it was over 100 µM; in assay [3], over 100 µM; in assay [4] it was over 100 µM.
For `Cc1cc(C)c(C#N)c(SC(=S)NC(=O)c2ccccc2)n1`, the TGI in assay [1], in assay [2], in assay [3], in assay [4] and in assay [5] was over 100 µM throughout.
In the case of `C=C(C)C(=O)O[C@H]1CC2(CO)O[C@@H]2CC/C(COC(C)=O)=C/C2OC(=O)C(=C)[C@@H]21` (stereo not given in full), the TGI in assay [1] is over 100 µM; in assay [2], over 63.6 µM; in assay [3], over 58.8 µM; in assay [4] it was over 91.6 µM; in assay [5] it was 29.8 µM.
On the same counts, the results for `COCCN(C(=O)c1ccccc1)C1CCC(=O)c2[nH]c3ccccc3c21` (stereo not given) are 31.2 µM, 30.4 µM, 10.9 µM, 31.8 µM and 26.9 µM.
As to `O=C(c1ccccc1)c1ccc2nc(-c3c(Cl)c(Cl)c(Cl)c(Cl)c3C(=O)Nc3ccco3)[nH]c2c1`, the TGI was over 100 µM in assay [1]; over 100 µM in assay [2]; over 100 µM in assay [3]; 53.1 µM in assay [4]; over 100 µM in assay [5].
For `CC(=O)OCC1(CNc2nc(N)ncc2C#N)CC(CCc2ccccc2)C1` (stereo not given), the TGI in assay [1], in assay [2], in assay [3] and in assay [5] was over 100 µM in each case.
For `CN1CCCC(OC(=O)c2cc3cc(CCl)ccc3oc2=O)C1` (stereo not given), the TGI is over 100 µM in assay [1]; 51.1 µM in assay [2]; 60.5 µM in assay [3]; 33.1 µM in assay [4]; 98 µM in assay [5].
As to `Cc1cn([C@@H]2C[C@](C)(CO)N(C)O2)c(=O)[nH]c1=O`, the TGI in assay [1], in assay [2], in assay [3] and in assay [4] was over 100 µM throughout.
With `C#Cc1cccc(Nc2ncnc3cc(OCCOC)c(OCCOC)cc23)c1`, the TGI in assay [1] is over 100 µM; in assay [2] it was 32.2 µM; in assay [3], 10 µM; in assay [4] it was over 100 µM; in assay [5], over 100 µM. In addition, the GI50 in assay [4] was over 88.8 µM; in assay [5] it was 24.2 µM.
In the case of `Cc1sc2nc3n(sc4nc5sc(C)c(C)c5c(=O)n43)c(=O)c2c1C`, the TGI in assay [1] is over 100 µM; in assay [3], over 100 µM; in assay [4], over 100 µM; in assay [5], 52 µM.
Regarding `O=C(O)Cn1ncn(NC(=O)Cc2ccccc2)c1=S`, the TGI in assay [1], in assay [2], in assay [3], in assay [4] and in assay [5] was over 10 µM each time.
As for `C=C1C(=O)O[C@H]2[C@H]1CC/C(COC(=O)/C=C/C(=O)OC/C1=C/CC[C@@]3(C)O[C@H]3[C@H]3OC(=O)C(=C)[C@@H]3CC1)=C\CC[C@@]1(C)O[C@@H]21`, the GI50 in assay [1] is over 100 µM; in assay [3], 1.08 µM; in assay [5], 0.307 µM. For the same molecule, the TGI is over 100 µM in assay [1], 3.43 µM in assay [3] and 1.4 µM in assay [5].
With `CC(=O)c1cc(S(=O)(=O)c2ccc(O)c(C(C)=O)c2)ccc1O`, the TGI in assay [1], in assay [2], in assay [3], in assay [4] and in assay [5] was over 100 µM throughout.
Take `Cc1c(Cl)c(=O)oc2cc(OCC(O)COC(C)C)ccc12` (stereo not given): the TGI in assay [1] was over 100 µM; in assay [2] it was over 100 µM; in assay [4] it was 37.3 µM; in assay [5], 66.9 µM.
Regarding `COC(C[C@H]1CCCC[C@]1(O)/C(=C\CO[Si](C(C)C)(C(C)C)C(C)C)Sc1ccccc1)OC`, the TGI is over 100 µM in assay [1]; over 100 µM in assay [2]; over 100 µM in assay [3]; 34.2 µM in assay [4]; 38.8 µM in assay [5].
Take `Nc1cc2ncnc(Nc3cccc(Br)c3)c2cn1`: the TGI in assay [1], in assay [2], in assay [3] and in assay [5] was over 100 µM each time.
With `COC(=O)NC(Nc1ccc(C)cc1)(C(F)(F)F)C(F)(F)F`, the TGI in assay [1], in assay [2], in assay [3], in assay [4] and in assay [5] was over 100 µM each time.
Take `C/C=C\C(CC(=O)NCCc1c[nH]c2ccccc12)CC(=O)OC` (stereo not given): the TGI in assay [1], in assay [2], in assay [3], in assay [4] and in assay [5] was over 100 µM throughout.
As for `CCC(=O)Nc1ccc(N2C(=O)/C(=C/c3ccc(O)c(OC)c3)N=C2c2ccccc2)cc1`, the TGI in assay [1] was over 100 µM; in assay [2], 89.9 µM; in assay [3] it was over 100 µM; in assay [4], over 100 µM; in assay [5] it was over 100 µM.
In the case of `CC(C)Oc1cc2c(cc1O)CC[C@@H]1[C@@H]2CC[C@]2(C)[C@@H](O)CC[C@@H]12`, the TGI is 65.9 µM in assay [1]; over 84.7 µM in assay [2]; over 20 µM in assay [3]; 20.9 µM in assay [4]; 30.2 µM in assay [5].
In the case of `C=C1CC(Cn2cc(Br)c(=O)[nH]c2=O)(c2ccc(Br)cc2)OC1=O` (stereo not given), the TGI in assay [1] worked out at 29 µM; in assay [2] it was 9.4 µM; in assay [3], 7.13 µM; in assay [4] it was 8.4 µM; in assay [5] it was 6.13 µM.
On the same counts, the results for `CCCCN(CCCC)C1=Nc2ccccc2-n2c(nnc2C(=O)OCC)C1` are over 100 µM, over 100 µM, over 100 µM, over 100 µM and 84.1 µM.
As for `CCCCNC(=S)Nc1nc(C(=O)NNC(=S)NCc2ccccc2)cs1`, the TGI in assay [1] is over 100 µM; in assay [2] it was 78.5 µM; in assay [3] it was 90.1 µM; in assay [4] it was over 100 µM; in assay [5] it was over 100 µM.
As for `c1cc2c3c(c1)[C@@H]1O[C@@H]1c1cccc(c1-3)[C@@H]1O[C@H]21`, the TGI in assay [1] is over 100 µM; in assay [2], 43 µM; in assay [3], 32.7 µM; in assay [5] it was over 100 µM.
Turning to `COc1ccc(OC)c(-c2cn3c(n2)sc2ccccc23)c1`, the TGI in assay [1], in assay [2], in assay [3] and in assay [5] was over 100 µM each time.
As to `COc1ccc(C[C@H]2COC(=O)[C@@H]2Cc2ccccc2)cc1OC`, the TGI in assay [1], in assay [2] and in assay [5] was over 100 µM each time.
Turning to `O=C1NC(=S)N/C1=C\c1ccc(Sc2ccccc2C(=O)O)s1`, the TGI in assay [2], in assay [3], in assay [4] and in assay [5] was over 100 µM in each case.
With `NC(=O)CC[C@H]1C(=O)N=C(N)N1C(=O)OCc1ccccc1`, the TGI in assay [2], in assay [3], in assay [4] and in assay [5] was over 100 µM throughout.
Consider `O=c1[nH]nc(N/N=C\c2ccc(Cl)cc2)c2ccccc12`, for which the TGI was 41.6 µM in assay [1], 37.8 µM in assay [2], 34 µM in assay [3] and over 100 µM in assay [5].
With `C/C(=C\COP(=O)(O)OP(=O)(O)O)CC/C=C(\C)CNc1ccccc1`, the TGI in assay [1], in assay [2], in assay [3] and in assay [5] was over 50 µM throughout.
As for `COc1ccc2c3c([nH]c2c1)-c1nc2ccccc2c(=O)n1CC3`, the GI50 in assay [1] was 0.754 µM. For the same molecule, the TGI in assay [1], in assay [2], in assay [4] and in assay [5] was over 25 µM throughout.
With `Cn1c(O)c(/C=N/c2ncccn2)c(=O)[nH]c1=O`, the TGI in assay [1], in assay [2], in assay [3] and in assay [5] was over 100 µM each time.
As for `O=[N+]([O-])c1cccc([N+](=O)[O-])c1Cl`, the TGI is 30 µM in assay [1], 31.4 µM in assay [2], 7.68 µM in assay [3] and over 100 µM in assay [5].
In the case of `CCOC(=O)c1c(SCCN2CCCCC2)n(-c2ccccc2)c(=S)n(-c2ccccc2)c1=O`, the TGI was over 100 µM in assay [1], 34.7 µM in assay [2], over 53.4 µM in assay [4] and 6.7 µM in assay [5].
Regarding `Cc1ccc(C2(N3CCOCC3)OC(C)(C)c3cccc4cccc2c34)cc1` (stereo not given), the TGI is 29 µM in assay [1], 31.6 µM in assay [2], 50.1 µM in assay [3] and over 100 µM in assay [5].

The record behind these values is PubChem BioAssay (NCI).
